In US5011851A, “Imidazole carboxylic acids and esters and inhibition of blood platelet aggregation therewith” (Bristol-Myers Squibb Co., priority 1990, dated 1991):
≈ marks a conversion by molar mass, not a printed value. Read-outs that look alike come from different tables or passages of the source.

Test system: ADP-induced aggregation of human platelets
Type: cell-based
Conditions: human platelet rich plasma, vs ADP, read-out: Inhibition of Human Platelet Aggregation IC50 Vs ADP

Row | IC50 (Formula II compounds) | IC50 (Formula VIII compounds) | SMILES
1 | 2.4 µg/mL (≈ 5.82 µM) |  | COC(=O)COc1cccc(CCc2nc(-c3ccccc3)c(-c3ccccc3)[nH]2)c1 [Example 1, Methyl [3-[2-(4,5-diphenyl-1H-imidazol-2-yl)ethyl]phenoxy]-acetate]
2 | 1.2 µg/mL (≈ 3.01 µM) |  | O=C(O)COc1cccc(CCc2nc(-c3ccccc3)c(-c3ccccc3)[nH]2)c1 [Example 2, [3-[2-(4,5-diphenyl-1H-imidazol-2-yl)ethyl]phenoxy]-acetic acid]
3 |  | 0.42 µg/mL (≈ 0.976 µM) | COC(=O)COc1cccc(CSc2nc(-c3ccccc3)c(-c3ccccc3)[nH]2)c1 [Example 4, Methyl [3-[[(4,5-diphenyl-1H-imidazol-2-yl)thio]methyl]phenoxy]acetate]
4 |  | 0.41 µg/mL (≈ 0.984 µM) | O=C(O)COc1cccc(CSc2nc(-c3ccccc3)c(-c3ccccc3)[nH]2)c1 [Example 5, [3-[[(4,5-Diphenyl-1H-imidazol-2-yl)thio]methyl]phenoxy]acetic Acid]
